The numbers were not newly measured in US20210069098A1, “RIBAVIRIN […] COMPOSITION FOR TREATING VIRAL DISEASES” (MT RESEARCH, LLC, priority 2009, published 2021), which cites them from elsewhere.

Read-outs that look alike come from different tables or passages of the source.

For series [1] the following is noted: PLV.
The conditions of series [2]: nebulized neat perflubron.

For the compound “superoxide dismutase [superoxide dismutase (SOD)]”, the survival result in the series on Influenza ([…]) is “improve survival”.
On to `FC(F)(F)C(F)(F)C(F)(F)C(F)(F)C(F)(F)C(F)(F)C(F)(F)C(F)(F)Br` [perflubron], for which, in series [1] (low dose 10 mL/kg or high dose 20 mL/kg), the “reduction in ventilator days or mortality” value is on record as “failed to demonstrate a reduction in ventilator days or mortality”. For the same compound, the complications entry in series [1] (low dose or high dose, hypotension, hypoxemia and pneumothorax) is recorded as “more complications”. The gas exchange entry in series [2] is recorded as “efficacy for gas exchange”.
With `CC(=O)N[C@@H](CS)C(=O)O` [N-acetylcysteine (NAC), N-acetylcysteine], the survival result with Influenza (in vivo) is reported as “improve survival”.
